Measured values reported in patent publication US6521608B1, “Vitamin D and its analogs in the treatment of tumors and other hyperproliferative disorders” (Oregon Health & Science University, priority 1998, dated 2003).
“And” between values parts separate entries of the source, which are not always exact repeats. Equal values may be shown once. Read-outs that look alike come from different tables or passages of the source.

Key:
[1] = Trial of weekly pulse oral calcitriol: toxicities graded by NCI Common Toxicity Criteria; assay type: in vivo, human
Protocol: (§1) Eligibility criteria included histologically confirmed malignancy refractory to standard therapy; age ≧18 years; expected survival of >2 months; ECOG performance status ≦2; hematocrit ≧30; serum creatinine ≦1.2 mg/dL; serum calcium ≦10.5 mg/dL; serum phosphate <4.2 mg/dL; ALT ≦60 IUIL; total serum bilirubin <2 mg/dL. Exclusion criteria included pregnancy, history of hypercalcemia, kidney stones, heart failure or significant heart disease including myocardial infarction in the last 3 months, known cardiac ejection fraction less than 30%, current digoxin therapy, thiazide diuretic therapy within 7 days, bisphosphonate treatment within 4 weeks, systemic steroid therapy within 2 weeks, and unwillingness or inability to stop all magnesium containing antacids, bile resin binding drugs, or calcium supplements for the duration of the study.
(§2) Patients were asked to maintain a reduced calcium diet for the four treatment weeks, with a goal of less than 500 mg per day, as described in Example 1. Calcitriol (Rocaltrol®, Roche Pharmaceuticals) was given orally once a week for four weeks. Each weekly dose was given in four divided doses given hourly over four hours. The starting dose was 0.06 μg/kg.
(§3) Complete blood count, serum creatinine, total serum bilirubin, ALT, alkaline phosphatase were monitored weekly. Serum calcium and phosphate were checked on the treatment day (day 1), and on days 2 and 3. Twenty-four hour urinary calcium excretion was measured on day 2. The 1,25-dihydroxyvitaunin D levels were measured by ^125I radioimmunoassay (Incstar, Stillwater, Minn.) and by a radioreceptor assay using calf thymus 1,25-dihydroxyvitamin D receptor (Endocrine Sciences, Calabasas Hills, Calif.). Peak levels were measured two hours after all the pills had been ingested. Trough levels were measured approximately 48 hours later.
After completing the four week treatment period, patients were monitored for four additional weeks. Serum calcium was checked in weeks 5 and 7 and tumor measurements were obtained in week 7. […] Response was assessed according to WHO guidelines. […]

[2] = Trial of weekly pulse oral calcitriol: plasma/serum 1,25-dihydroxyvitamin D levels (radioimmunoassay, radioreceptor assay); assay type: in vivo, human; set-up: Mean 48 hour 1,25-dihydroxyvitamin D level: unit not given here; conditions: for Mean peak 1,25-dihydroxyvitamin D level: peak two hours after all pills; for Mean 48 hour 1,25-dihydroxyvitamin D level: trough approximately 48 hours later
Protocol: In this example a person with metastatic malignant melanoma of the right jaw received a dose of 37 mcg of calcitriol (Rocaltrol, Roche) administered as 74 tablets (0.5 mcg each tablet) divided into four nearly equal doses given in hour one, two, three and four. The patient received this same therapy on day 1, 8, 15 and 22, and observed until at least day 56. The level of calcitriol in a plasma sample obtained two hours after the last dose of calcitriol (on week one) was determined using a commercial assay at Endocrine Sciences, Inc. The level was 1826 pg/ml, compared to the range for calcitriol levels in normal controls being 21 to 65 pg/ml.
as §2, §3

[3] = Trial of weekly pulse oral calcitriol: serum calcium, serum phosphate, 24 hour urinary calcium; assay type: in vivo, human; conditions: for Mean serum phosphate: 3.43 (SD 0.56) prior to treatment; for Mean serum calcium: 9.55 (SD 0.57) prior to treatment
Protocol: as §2, §3

[4] = system: malignancy refractory to standard therapy; experiment: Trial of weekly pulse oral calcitriol: tumor response (WHO guidelines, tumor markers); assay type: in vivo, human
Protocol: as §1, §2
After completing the four week treatment period, patients were monitored for four additional weeks. Serum calcium was checked in weeks 5 and 7 and tumor measurements were obtained in week 7. All toxicities were graded according to NCI Common Toxicity Criteria. Response was assessed according to WHO guidelines.

[5] = system: breast carcinoma metastatic to the skeleton; experiment: Case history: treatment of breast cancer with weekly pulse calcitriol; assay type: in vivo, human; conditions: 11 mcg po on day 1, 8, 15, 22; for serum tumor marker CA15-3: 445 pre-treatment
Excerpt: In this example, a person with breast carcinoma metastatic to numerous sites in the skeleton received a dose of 11 mcg of calcitriol (Rocaltrol, Roche) administered as […] (0.5 mcg each tablet) divided into four nearly equal doses given in hour one, two, three and four. The patient received this same therapy on day 1, 8, 15 and 22, and then was observed on study until day 56, and tolerated the treatment well. […] Objective benefits included a progressive decrease in the serum tumor marker CA15-3 from 445 (pre-treatment) to 365 (day 27), 365 (day 48) and 320 (day 70). […] No new lesions or pathologic fractures identified were identified by day 64.

[6] = relative to calcitriol = 1; cited from earlier work
[7] = system: LNCaP human prostate cancer cells; conditions: LNCaP cells in vitro, Skowronski et al., cited from earlier work
[8] = cited from earlier work
[9] = system: myelodysplastic syndrome; conditions: 2 mcg daily for 8 weeks or longer, cited from earlier work
[10] = system: hormone refractory prostate cancer; conditions: daily oral dose of 0.5-1.5 mcg, fourteen patients; cited from earlier work
[11] = system: ovarian cancer; conditions: continuous dose; cited from earlier work
[12] = single oral dose of 4 mcg, healthy volunteers, Mason et al.

C=C1/C(=C\C=C2/CCC[C@]3(C)[C@@H]([C@H](C)CCCC(C)(C)O)CC[C@@H]23)C[C@@H](O)C[C@@H]1O [calcitriol, 1α,25-dihydroxycholecalciferol]
deaths in the trial ([1]; 15 patients, 20 cycles): No deaths occurred | intermittent dose tolerated without hypercalcemia ([1]; given intermittently): ≤ 0.48 µg/kg | dose-limiting hypercalcemic toxicity ([1]; in vivo): No patient developed dose-limiting hypercalcemic toxicity | Serum 1,25-dihydroxyvitamin D trough levels ([2]; 48 hours, normal range 0.05-0.16 nM): returned to normal or near normal levels by 48 hours | Mean peak 1,25-dihydroxyvitamin D level ([2]; dose level 0.06 μg/kg po over four hours, 1 patient): 0.71 nM | Mean 48 hour 1,25-dihydroxyvitamin D level ([2]; dose level 0.06 μg/kg po): 0.27 | Mean peak 1,25-dihydroxyvitamin D level ([2]; dose level 0.24 μg/kg po over four hours, 1 patient): 2.27 nM | Mean 48 hour 1,25-dihydroxyvitamin D level ([2]; dose level 0.24 μg/kg po): 0.21 | Mean peak 1,25-dihydroxyvitamin D level ([2]; dose level 0.48 μg/kg po over four hours, 2 patients): 4.11 nM | Mean 48 hour 1,25-dihydroxyvitamin D level ([2]; dose level 0.48 μg/kg po): 0.23 | Mean peak 1,25-dihydroxyvitamin D level ([2]; dose level 0.80 μg/kg po over four hours, 1 patient): 3.53 nM | Mean peak 1,25-dihydroxyvitamin D level ([2]; dose level 0.96 μg/kg po over four hours, 1 patient): 3.83 nM | Mean peak 1,25-dihydroxyvitamin D level ([2]; dose level 1.60 μg/kg po over four hours, 2 patients): 3.65 nM | Mean peak 1,25-dihydroxyvitamin D level ([2]; dose level 1.92 μg/kg po over four hours, 1 patient): 3.34 nM | Mean peak 1,25-dihydroxyvitamin D level ([2]; dose level 2.00 μg/kg po over four hours, 6 patients): 4.07 nM | Mean 48 hour 1,25-dihydroxyvitamin D level ([2]; dose level 2.00 μg/kg po): 0.26 | Mean peak 1,25-dihydroxyvitamin D level ([2]; dose level 2.80 μg/kg po over four hours, 2 patients): 2.96 nM | effect of dose escalation beyond 0.48 μg/kg on peak calcitriol levels ([2]; dose levels up to 2.80 μg/kg po): did not result in further increases in peak calcitriol levels | concentration at 2 h ([2]; male, human, plasma, melanoma patient, 37 mcg po in four hourly doses, sample two hours after the last dose, week one, normal controls 21 to 65 pg/ml, read-out: level of calcitriol in plasma): 1.83 ng/mL | Peak blood levels of calcitriol above the upper limit of normal ([2]; pulsed weekly administration): about 25 fold | clearance of calcitriol from the blood ([2]; weekly pulse schedule): essentially completely cleared from the blood by day 3 | peak blood calcitriol levels in patients ([2]; weekly pulse schedule, highest level seen): up to 8.9 nM | serum calcium and other chemical and hematological parameters, melanoma patient ([3]; 37 mcg po on day 1, 8, 15, 22): remained normal | Mean serum phosphate ([3]; 24 hours after dose, normal range 2.2-4.2): 3.98 (SD 0.57) mg/dL | Mean serum calcium ([3]; 24 hours after dose, normal range 8.5-10.5): 9.76 (SD 0.63) mg/dL | Mean serum phosphate ([3]; 48 hours after dose, p<0.0001): 3.86 (SD 0.53) mg/dL | Mean serum calcium ([3]; 48 hours after dose, p=0.0002): 9.88 (SD 0.68) mg/dL | time for calcium levels above the normal range to return to normal ([3]; no intervention): ≤ 2 days | 24 hour urinary calcium excretion, range ([3]; on treatment, day 2 of each treatment week, 44-292 prior to treatment): 59 to 594 mg | Mean 24 hour urinary calcium excretion ([3]; on treatment, day 2 of each treatment week, 130 (SD 62) prior to treatment, normal range 100-300): 263 (SD 125) mg | decline in serum AFP level ([4]; hepatocellular carcinoma patient, two cycles (0.80 and 1.60 μg/kg)): 70% | patients with measurable disease with evidence of progressive disease ([4]; of eight patients): three | patients without measurable disease with tumor marker or clinical evidence of progressive disease ([4]; of seven patients): three | PSA course in a prostate cancer patient ([4]; two cycles of therapy, rapidly rising PSA prior to enrollment): stable PSA for the entire 16 weeks | patients without measurable disease with no evidence of progression ([4]; weekly pulse calcitriol): Four of seven | patients with measurable disease who had stable disease ([4]; weekly pulse calcitriol, tumor measurements week 7): Five of eight | Radiologic evaluation of areas of known bony involvement [5]: progressive sclerosis of multiple lesions in the pelvis and right hip | Subjective beneficial effects [5]: a reduction in pain and in analgesia required | serum tumor marker CA15-3 ([5]; day 27): 365 | serum tumor marker CA15-3 ([5]; day 48): 365 | serum tumor marker CA15-3 ([5]; day 70): 320 | calcemic index (CI) [6]: 1 | concentration giving measurable growth inhibition [7]: 0.1 nM | IC50 ([7]; read-out: concentration giving 50% growth inhibition): 1 nM | peak 1,25-dihydroxyvitamin D serum concentrations ([8]; 2 mcg single oral dose, healthy volunteers, Papapoulus et al.): 0.235 nM and 0.351 nM | patients with a serum calcium above 10.8 ([8]; 4 mcg per day for 4 days, postmenopausal women, no clinically significant hypercalcemia, Geusens et al.): Four of the 27 | peak of stable serum levels of 1,25-dihydroxyvitamin D ([8]; 32 mcg/day for 3 months, patients with osteopetrosis, no hypercalcemia, Key et al.): 2.32 nM | duration of hypercalcemic effect ([8]; in vivo): 3 to 5 days | serum half life ([8]; in vivo): 3 to 6 h | time after administration at which intestinal absorption of calcium begins to increase ([8]; in vivo): 2 h | time of maximal hypercalcemic effect ([8]; in vivo): 10 h | time at which peak serum concentration is reached ([8]; replacement therapy doses): 2 h | peak 1,25-dihydroxyvitamin D serum concentrations [8, 12]: 0.42 nM | serum calcium [8, 12]: no elevation in serum calcium | serum calcium ([8]; up to 2.7 mcg/day for 7 to 15 days, normal volunteers, Brickman et al.): no significant elevations in serum calcium were observed | stable 1,25-dihydroxyvitamin D serum levels ([8]; up to 3 mcg/day for 6-12 days, normal volunteers, Adams et al.): 0.184 to 0.235 nM | elevation in serum calcium ([8]; up to 3 mcg/day for 6-12 days, patients on a low calcium diet, Adams et al.): None of the patients | patients who experienced symptomatic hypercalcemia ([9]; 18 patients): 4 | patients with minor and transient improvements in the peripheral blood counts [9]: Eight of 18 | patients who experienced hypercalcemia [10]: Thirteen | response [10]: no significant response was demonstrated | hypercalcemia [11]: encountered hypercalcemia
